According to US20260250320A1, “LIPIDATED PEPTIDE INHIBITORS OF INTERLEUKIN-23 RECEPTOR” (Janssen Pharmaceutica NV, priority 2023, published 2026):
*1 amine or outer side, *2 acyl side, *3 side chain or, on linkers, in order; H or OH if unused. Where a SMILES comes first, the peptide text is derived from it. Bridges are numbered along the chain shown (N, C = ends). Side-chain parts run from the residue outwards. [ ]: non-standard residue; d: D form. The star is where a group is joined. X23 = CN(CCOCCOCC(=O)N(C)CCOCCOCC(=O)*)C(=O)CC[C@H](C(=O)O)N(C)C(=O)CCCCCCCCCCCCCCCCC(=O)O; X4 = C[N+](C)(CCCCCCc1ccc(C[C@H](N[*:1])C(=O)[*:2])cc1)CCOCCOCCN[*:3]; X21 = NC(=O)C[C@H](N[*:1])C(=O)C[C@@H](Cc1cccnc1)C(=O)[*:2]; Me3N+(CH2)2O(CH2)2O(CH2)2CO = C[N+](C)(C)CCOCCOCCC(=O)*; PEG12 = NCCOCCOCCOCCOCCOCCOCCOCCOCCOCCOCCOCCOCCC(=O)O; CH2CH2OCH2CH2OCH2CH2NMe3+ = C[N+](C)(C)CCOCCOCC*; Trp(7-Me) = Cc1cccc2c(C[C@H](N)C(=O)O)c[nH]c12; C20 diacid = O=C(O)CCCCCCCCCCCCCCCCCCC(=O)*; Hexanoyl(6-NMe3+) = C[N+](C)(C)CCCCCC(=O)*; C18 diacid = O=C(O)CCCCCCCCCCCCCCCCC(=O)*; X20 = CC(=O)CCCCC[C@H](N[*:1])C(=O)[*:2]; γGlu = O=C(O)[C@H](CCC(=O)[*:2])N[*:1]; 2Nal = N[C@@H](Cc1ccc2ccccc2c1)C(=O)O; AEF = NCCOc1ccc(C[C@H](N)C(=O)O)cc1; PEG6 = NCCOCCOCCOCCOCCOCCOCCC(=O)O; 3Pal = N[C@@H](Cc1cccnc1)C(=O)O; Lys(Me) = CNCCCC[C@H](N)C(=O)O; NMeK = CN[C@@H](CCCCN)C(=O)O; Pen = CC(C)(S)[C@H](N)C(=O)O; Thp = NC1(C(=O)O)CCOCC1; AEEA = NCCOCCOCC(=O)O; Sar = CNCC(=O)O

Columns and labels:
[1] = system: IL-23-stimulated phosphorylated STAT3 in peripheral blood mononuclear cells (PBMCs); assay: PBMC pSTAT3 Assay; type: cell-based; details: PBMCs from healthy donors; 30 min preincubation with peptide; IL-23 5 ng/mL for 30 min; phospho-STAT3 by MSD
How it was run: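 Phospho-STAT3 quantified by Meso Scale assay in lysates of PBMCs exposed to IL-23 (5 ng/mL, 30 min, 37 °C) after 30 min peptide pretreatment. Cells were cryopreserved donor PBMCs activated 4 days with anti-CD3 plus IL-1β (100 ng/mL) and starved ~4 h; IC50 reported.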

[2] = biological target: T1, IL-23R (Homo sapiens, UniProt Q5VWK5); assay: IL23R Reporter Assay; type: cell-based; details: HEK293 cells containing IL-23R, IL-12Rβ1 and STAT-inducible firefly luciferase reporter; 10 ng/mL IL-23 (EC90); 5 h
T1 construct: HEK293 cells containing IL-23R, IL-12Rβ1 and a firefly luciferase reporter gene driven by a STAT-inducible promoter (Promega); host or cells: HEK293
T1 sequence (Q5VWK5 24-629): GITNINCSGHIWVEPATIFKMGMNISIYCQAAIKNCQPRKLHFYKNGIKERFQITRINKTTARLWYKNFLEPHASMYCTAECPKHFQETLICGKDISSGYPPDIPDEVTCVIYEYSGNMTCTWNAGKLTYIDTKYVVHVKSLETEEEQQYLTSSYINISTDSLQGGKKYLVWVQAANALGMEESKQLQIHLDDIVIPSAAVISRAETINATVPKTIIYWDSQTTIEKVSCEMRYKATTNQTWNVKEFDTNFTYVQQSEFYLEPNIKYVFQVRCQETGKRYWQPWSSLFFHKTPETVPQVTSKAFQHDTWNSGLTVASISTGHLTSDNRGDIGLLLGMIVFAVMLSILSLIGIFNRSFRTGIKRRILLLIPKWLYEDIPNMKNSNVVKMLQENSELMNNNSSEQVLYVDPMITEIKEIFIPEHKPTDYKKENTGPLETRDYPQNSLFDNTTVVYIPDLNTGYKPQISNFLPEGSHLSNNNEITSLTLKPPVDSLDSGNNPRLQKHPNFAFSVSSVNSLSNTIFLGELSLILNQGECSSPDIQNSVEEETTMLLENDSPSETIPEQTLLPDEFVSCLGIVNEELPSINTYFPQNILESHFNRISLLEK
How it was run: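 IC50 values were fitted with a 4-parameter Hill equation to luciferase signal, scaled between IL-23-only wells (0% inhibition) and 30 μM reference inhibitor (100%). The readout was a STAT-inducible reporter in IL-23R/IL-12Rβ1 HEK293 cells, stimulated with added 10 ng/mL IL-23 (EC90) for 5 h at 37° C and developed with BioGlo.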

Structure (SMILES)	IC50 [1] [nM]	IC50 [2] [nM]
CC(=O)NCCCC[C@@H]1NC(=O)[C@H](Cc2c[nH]c3c(C)cccc23)NC(=O)[C@H]([C@@H](C)O)NC(=O)[C@H](CC(N)=O)NC(=O)[C@@H](NC(=O)[C@@H](CCCCNC(=O)CCOCCOCCOCCOCCOCCOCCOCCOCCOCCOCCOCCOCCNC(=O)CC[C@H](NC(=O)CCCCCCCCCCCCCCCCCCC(=O)O)C(=O)O)NC(C)=O)C(C)(C)SSC(C)(C)[C@@H](C(=O)N[C@@H](Cc2ccc(OCCN)cc2)C(=O)N[C@@H](Cc2ccc3ccccc3c2)C(=O)NC2(C(=O)N[C@@H](CCCCNC(C)=O)C(=O)N[C@@H](CC(N)=O)C(=O)N[C@@H](Cc3cccnc3)C(=O)N(C)CC(N)=O)CCOCC2)NC1=O [compound 104, MeCO-k(PEG12gEC20OH)-Pen(3)-N-T-7MeW-K(Ac)-Pen(3)-AEF-2Nal-THP-K(Ac)-N-3Pya-Ser-CONH2] (Ac-[dK]([PEG12-γGlu-C20 diacid])[Pen]NT[Trp(7-Me)]K(Ac)[Pen][AEF][2Nal][Thp]K(Ac)N[3Pal][Sar]-NH2; disulfide 2-7)	< 0.5	< 50
CC(=O)CCCCC[C@@H]1NC(=O)[C@H](Cc2c[nH]c3c(C)cccc23)NC(=O)[C@H]([C@@H](C)O)NC(=O)[C@H](CC(N)=O)NC(=O)[C@@H](NC(C)=O)C(C)(C)SSC(C)(C)[C@@H](C(=O)N[C@@H](Cc2ccc(OCCN)cc2)C(=O)N[C@@H](CCC(=O)O)C(=O)N[C@@H](CC(N)=O)C(=O)N[C@@H](Cc2cccnc2)C(=O)N(C)CC(=O)N[C@@H](CCCCNC(=O)CCOCCOCCOCCOCCOCCOCCOCCOCCOCCOCCOCCOCCNC(=O)CC[C@H](NC(=O)CCCCCCCCCCCCCCCCC(=O)O)C(=O)O)C(N)=O)NC1=O [compound 161, MeCO-Pen(3)-N-T-7MeW-K(Ac)-Pen(3)-AEF-2Nal-THP-E-N-3Pya-Sar-K(PEG12gEC18OH)-CONH2] (Ac-[Pen]NT[Trp(7-Me)][X20][Pen][AEF]EN[3Pal][Sar]K([PEG12-γGlu-C18 diacid])-NH2; disulfide 1-6)	< 0.5	< 50
CC(=O)N[C@H](CCCNC(=N)N)C(=O)N[C@@H]1C(=O)N[C@@H](CC(N)=O)C(=O)N[C@@H]([C@@H](C)O)C(=O)N[C@@H](Cc2c[nH]c3c(C)cccc23)C(=O)N[C@@H](CCCCNC(=O)COCCOCCNC(=O)COCCOCCNC(=O)CC[C@H](NC(=O)CCCCCCCCCCCCCCCCC(=O)O)C(=O)O)C(=O)N[C@H](C(=O)N[C@@H](Cc2ccc(OCCN)cc2)C(=O)N[C@@H](Cc2ccc3ccccc3c2)C(=O)NC2(C(=O)N[C@@H](CCCCN(C)C(=O)CCOCCOCC[N+](C)(C)C)C(=O)N[C@@H](CC(N)=O)C(=O)C[C@@H](Cc3cccnc3)C(=O)N(C)CC(N)=O)CCOCC2)C(C)(C)SSC1(C)C [compound 79, MeCO-r-Pen(3)-N-T-7MeW-K(PEG2PEG2gEC18OH)-Pen(3)-AEF-2Nal-THP-K(NMecPEG3a)-N-3Pya-Sar-CONH2] (Ac-[dR][Pen]NT[Trp(7-Me)]K([AEEA-AEEA-γGlu-C18 diacid])[Pen][AEF][2Nal][Thp][Lys(Me)](Me3N+(CH2)2O(CH2)2O(CH2)2CO)[X21][Sar]-NH2; disulfide 2-7)	< 0.5	50 to 500
CC(=O)N(C)CCCC[C@@H]1NC(=O)[C@H](Cc2c[nH]c3c(C)cccc23)NC(=O)[C@H]([C@@H](C)O)NC(=O)[C@H](CC(=O)N(C)C)NC(=O)[C@@H](NC(=O)CCOCCOCC[N+](C)(C)C)C(C)(C)SSC(C)(C)[C@@H](C(=O)N[C@@H](Cc2ccc(CCCCCC[N+](C)(C)CCOCCOCCNC(=O)COCCOCCNC(=O)CC[C@H](NC(=O)CCCCCCCCCCCCCCCCC(=O)O)C(=O)O)cc2)C(=O)N[C@@H](Cc2ccc3ccccc3c2)C(=O)NC2(C(=O)N[C@@H](CC(N)=O)C(=O)N[C@@H](Cc3cccnc3)C(=O)N(C)CC(=O)N(C)C)CCOCC2)NC1=O [compound 143, cPEG3aCO-Pen(3)-N(N(Me)2)-T-7MeW-K(NMeAc)-Pen(3)-TMAPF(PEG2PEG2gEC18OH)-2Nal-THP-N-3Pya-Sar-CON(Me)2] ({Me3N+(CH2)2O(CH2)2O(CH2)2CO}-[Pen]D(NMe2)T[Trp(7-Me)][Lys(Me)](Ac)[Pen][X4]([AEEA-γGlu-C18 diacid])[2Nal][Thp]N[3Pal][Sar]-NMe2; disulfide 1-6)	≥ 5	≥ 500
CC(=O)NCCCC[C@@H]1NC(=O)[C@H](Cc2c[nH]c3c(C)cccc23)NC(=O)[C@H]([C@@H](C)O)NC(=O)[C@H](CC(N)=O)NC(=O)[C@@H](NC(=O)[C@@H](CCCCNC(=O)CCOCCOCCOCCOCCOCCOCCOCCOCCOCCOCCOCCOCCNC(=O)CC[C@H](NC(=O)CCCCCCCCCCCCCCCCC(=O)O)C(=O)O)NC(C)=O)C(C)(C)SSC(C)(C)[C@@H](C(=O)N[C@@H](Cc2ccc(OCCN)cc2)C(=O)N[C@@H](Cc2ccc3ccccc3c2)C(=O)NC2(C(=O)N[C@@H](CCC(=O)O)C(=O)N[C@@H](CC(N)=O)C(=O)N[C@@H](Cc3cccnc3)C(=O)N(C)CC(N)=O)CCOCC2)NC1=O [compound 117, MeCO-k(PEG12gEC18OH)-Pen(3)-N-T-7MeW-K(Ac)-Pen(3)-AEF-2Nal-THP-E-N-3Pya-Sar-CONH2] (Ac-[dK]([PEG12-γGlu-C18 diacid])[Pen]NT[Trp(7-Me)]K(Ac)[Pen][AEF][2Nal][Thp]EN[3Pal][Sar]-NH2; disulfide 2-7)	< 0.5	< 50
CC(=O)N(C)CCCC[C@@H]1NC(=O)[C@H](Cc2c[nH]c3c(C)cccc23)NC(=O)[C@H]([C@@H](C)O)NC(=O)[C@H](CC(=O)N(C)C)NC(=O)[C@@H](NC(=O)CCOCCOCC[N+](C)(C)C)C(C)(C)SSC(C)(C)[C@@H](C(=O)N[C@@H](Cc2ccc(OCCOCCOCC[N+](C)(C)C)cc2)C(=O)N[C@@H](Cc2ccc3ccccc3c2)C(=O)NC2(C(=O)N[C@@H](CCCCN(C)C(C)=O)C(=O)N[C@@H](CC(N)=O)C(=O)N[C@@H](Cc3cccnc3)C(=O)N(C)[C@@H](CCCCNC(=O)CCOCCOCCOCCOCCOCCOCCNC(=O)CC[C@H](NC(=O)CCCCCCCCCCCCCCCCC(=O)O)C(=O)O)C(N)=O)CCOCC2)NC1=O [compound 88, cPEG3aCO-Pen(3)-N(N(Me)2)-T-7MeW-K(NMeAc)-Pen(3)-APEG3F-2Nal-THP-K(NMeAc)-N-3Pya-NMeK(PEG6gEC18OH)-CONH2] ({Me3N+(CH2)2O(CH2)2O(CH2)2CO}-[Pen]D(NMe2)T[Trp(7-Me)][Lys(Me)](Ac)[Pen]Y(CH2CH2OCH2CH2OCH2CH2NMe3+)[2Nal][Thp][Lys(Me)](Ac)N[3Pal][NMeK]([PEG6-γGlu-C18 diacid])-NH2; disulfide 1-6)	< 0.5	< 50
CC(=O)NCCCC[C@@H]1NC(=O)[C@H](Cc2c[nH]c3c(C)cccc23)NC(=O)[C@H]([C@@H](C)O)NC(=O)[C@H](CC(N)=O)NC(=O)[C@@H](NC(=O)[C@@H](CCCNC(=N)N)NC(C)=O)C(C)(C)SSC(C)(C)[C@@H](C(=O)N[C@@H](Cc2ccc(OCCN)cc2)C(=O)N[C@@H](Cc2ccc3ccccc3c2)C(=O)NC2(C(=O)N[C@@H](CCC(=O)O)C(=O)N[C@@H](CC(N)=O)C(=O)N[C@@H](Cc3cccnc3)C(=O)N(C)[C@@H](CCCCNC(=O)COCCOCCN(C)C(=O)COCCOCCN(C)C(=O)CC[C@H](C(=O)O)N(C)C(=O)CCCCCCCCCCCCCCCCC(=O)O)C(N)=O)CCOCC2)NC1=O [compound 80, MeCO-r-Pen(3)-N-T-7MeW-K(Ac)-Pen(3)-AEF-2Nal-THP-E-N-3Pya-NMeK(PEG2NMePEG2NMegENMeC18OH)-CONH2] (Ac-[dR][Pen]NT[Trp(7-Me)]K(Ac)[Pen][AEF][2Nal][Thp]EN[3Pal][NMeK](X23)-NH2; disulfide 2-7)	< 0.5	50 to 500
CC(=O)NCCCC[C@@H]1NC(=O)[C@H](Cc2c[nH]c3c(C)cccc23)NC(=O)[C@H]([C@@H](C)O)NC(=O)[C@H](CCCCNC(=O)COCCOCCNC(=O)COCCOCCNC(=O)CC[C@H](NC(=O)CCCCCCCCCCCCCCCCC(=O)O)C(=O)O)NC(=O)[C@@H](NC(=O)[C@@H](CCCNC(=N)N)NC(=O)CCCCC[N+](C)(C)C)C(C)(C)SSC(C)(C)[C@@H](C(=O)N[C@@H](Cc2ccc(OCCN)cc2)C(=O)N[C@@H](Cc2ccc3ccccc3c2)C(=O)NC2(C(=O)N[C@@H](CCC(=O)O)C(=O)N[C@@H](CC(N)=O)C(=O)N[C@@H](Cc3cccnc3)C(=O)N(C)CC(N)=O)CCOCC2)NC1=O [compound 73, 5cpaCO-r-Pen(3)-K(PEG2PEG2gEC18OH)-T-7MeW-K(Ac)-Pen(3)-AEF-2Nal-THP-E-N-3Pya-Sar-CONH2] ({Hexanoyl(6-NMe3+)}-[dR][Pen]K([AEEA-AEEA-γGlu-C18 diacid])T[Trp(7-Me)]K(Ac)[Pen][AEF][2Nal][Thp]EN[3Pal][Sar]-NH2; disulfide 2-7)	< 0.5	50 to 500
